Seven compounds from patent US20240425529A1, “BORIC ACID DERIVATIVE” (SHOUYAO HOLDINGS (BEIJING) CO., LTD., priority 2021, published 2024) can be followed below.

The target in one data set is T1, β5 (Homo sapiens, UniProt P28074).
T1 construct: using HEK-293 cell lysate as the enzyme source of D5; endogenous in cells; host or cells: HEK-293 (human embryonic kidney cells)
Briefly: Enzymatic inhibitory activity on β5 (HEK-293 cell lysate, Ac-WLA-AMC substrate). As to conditions: 1 hour pre-incubation. The class given is biochemical. In short, it runs like this: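 HEK-293 lysate (25 ng/μl final) preincubated 1 h at 23 °C with compound (9-point, 5-fold dilutions) in 20 mM Tris pH 8.0, 0.5 mM EDTA. Ac-WLA-AMC then added at 20 μM final for 2 h at 23 °C in the dark. AMC fluorescence read at Ex 345/Em 445 nm; IC50 from curve fit.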

In data set [1] the test system is multiple myeloma cells MM. 1S. Briefly: In-vivo assay I: subcutaneous xenograft model of multiple myeloma cells MM. 1S in mice. As to conditions: MM. 1S xenograft, NOD/SCID mice; for animal death or weight loss caused by the compound: 2 mg/kg orally once daily for 14 days; for T/C / TGI (tumor growth inhibition rate): 2 mg/kg orally once daily, Day 14. As to the method: Evaluation assay of LMP7 inhibitors in a subcutaneous xenograft model of multiple myeloma cells MM. 1S in mice
Female NOD/SCID mice, week old: 5-6 weeks old, certificate No: SCXK(Jing) 2021-0006, purchased from Beijing Vital River Experimental Animal Technology Co. Ltd.
The specific method was that mice were housed in an SPF environment. Every 5 mice were housed in 1 cage. Animals were free to drink and eat and were adaptively raised for one week. Laboratory conditions: room temperature 18-24° C., relative humidity 40%-70%, ventilated with a ventilation fan, natural light source for 12 hours per day. Cages, bedding, drinking water, and feed were replaced twice a week, and the replaced cages and drinking water bottles were cleaned and then sterilized by steam under high pressure. Cages, room walls, and floors were cleaned twice a week with 84-disinfectant or bromogeramine.
MM. 1S (Cell Resource Center, Institute of Basic Medical Sciences, Chinese Academy of Medical Sciences) cells were cultured using RPMI-1640 medium supplemented with 20% fetal bovine serum and 1% Penicillin-Streptomycin at 37° C. in an atmosphere of 5% CO2 in air. Cells were routinely sub-cultured twice weekly, and cells grown in the exponential growth phase were harvested and counted. Cell suspensions were mixed well in 30% Matrigel™ (Corning Matrigel™ High Concentration Basement Membrane) for tumor cell inoculation.
Mice were pretreated with cyclophosphamide via intraperitoneal injection for 3 days, and each mouse was subcutaneously injected with 0.1 mL of PBS-suspended MM. 1S cell suspension (containing 1.0×10^7 cells, 30% Matrigel) at the axillary sites on both sides to establish a subcutaneous transplanted tumor model of multiple myeloma cells MM. 1S in mice. When the tumor size reached 400-700 mm^3, the tumor mass was collected aseptically and cryopreserved for future use. The MM. 1S tumor mass was revived, and the tumor mass was aseptically collected for 2 generations for an in-vivo efficacy evaluation assay. When the average tumor volume was about 100-150 mm^3, 20 tumor-bearing mice with a relatively regular shape and uniform size were selected for the experiment. They were divided into 4 groups, with 5 animals in each group. The first group of the model group was orally administered with the vehicle once daily; the second group was orally administered with Example 9 (2 mg/kg) once daily; the third group was orally administered with Example 67 (2 mg/kg) once daily; the fourth group was orally administered Example 73 (2 mg/kg) once daily. Administration was started on the day of grouping and continued for 14 days. Tumor diameter and body weight were measured 3 times per week during the experiment. At the end of the experiment, intraocular canthus blood was collected and mice were sacrificed immediately after blood collection to collect tumor tissue.
The study endpoints were tumor growth inhibition, maximum tumor burden (individual tumor size equal to 10% of body weight), and weight loss greater than 20% of body weight at the start of treatment. The tumor volume was calculated as V=0.5×a×b^2, where V is the tumor volume and a and b are the length and width of the tumor, respectively. The tumor growth inhibition rate was calculated as TGI (%)=(1-(tumor volume of treatment group-tumor volume of treatment group at grouping)/(tumor volume of control group-tumor volume of control group at grouping))*100%. Complete tumor regression (CR) is defined as a tumor that is reduced to below the palpation limit (mm^3). Partial tumor regression (PR) is defined as a tumor that is reduced by at least half compared to the initial tumor volume. The minimum duration of CR or PR in three or more consecutive tumor measurements is required to consider CR or PR as persistent. […]

Turning to `CC1CC(C)(C)OB([C@H](Cc2coc3ccccc23)NC(=O)C(=O)Nc2cnccn2)O1` (stereo partly shown) [Ex. 67], half-maximal inhibition at β5 (IC50) required 38.2 nM. Moreover, in data set [1], the “animal death or weight loss caused by the compound” value is given as “no animal death or weight loss”, the T/C was 1.57% and the “TGI (tumor growth inhibition rate)” value was 112.06%.
For `O=C(Nc1cnccn1)C(=O)N[C@@H](Cc1coc2ccccc12)B(O)O` [Ex. 9, (R)-(2-(benzofuran-3-yl)-1-(2-oxo-2-(pyrazin-2-ylamino)acetamido)ethyl) boronic acid], in that order: 97.5 nM, “no animal death or weight loss”, 0.88% and 112.28%.
Take `Cc1cnc(NC(=O)C(=O)N[C@@H](Cc2coc3ccccc23)B(O)O)s1` [Ex. 32, (R)-(2-(benzofuran-3-yl)-1-(2-oxo-2-((5-methylthiazol-2-yl)amino)acetamido)ethyl)boronic acid]: the IC50 at β5 was 62.9 nM.
On β5, `O=C(Nc1cc(Cl)ccn1)C(=O)N[C@@H](Cc1coc2ccccc12)B(O)O` [Ex. 49, (R)-(2-(benzofuran-3-yl)-1-(2-oxo-2-((4-chloropyridin-2-yl)amino)acetamido)ethyl)boronic acid] had an IC50 of 61.1 nM.
The same measure, in the same setting: with `O=C(Nc1nc2ccccc2s1)C(=O)N[C@@H](Cc1coc2ccccc12)B(O)O` [Ex. 27, (R)-(2-(benzofuran-3-yl)-1-(2-oxo-2-((benzo[d]thiazol-2-yl)amino)acetamido)ethyl)boronic acid] the figure was 44.6 nM; with `O=C(Nc1ccccn1)C(=O)N[C@@H](Cc1coc2ccccc12)B(O)O` [Ex. 12], 283 nM.
In turn, `O=C1COB([C@H](Cc2coc3ccccc23)NC(=O)C(=O)Nc2cnccn2)O1` [Ex. 73] showed an IC50 at β5 of 20.7 nM. Also, in data set [1], the “animal death or weight loss caused by the compound” value is “no animal death or weight loss”, the T/C is reported as 0.53% and the “TGI (tumor growth inhibition rate)” value was 112.56%.
